Results: PMC8658889, “Seriniquinones as Therapeutic Leads for Treatment of BRAF and NRAS Mutant Melanomas” (Molecules, 2021)

How the values were obtained:
Assay type in all cases: cell-based, Human
[1] = test system: SK-MEL-19; assay: MTT cytotoxicity assay; settings: for IC50: Homo sapiens, SK-MEL19, SK-MEL-19, 72 h treatment, MTT
Description: (§1) Human cell lines were used throughout this program. SK-MEL-19 (melanoma BRAF^V600E, NRAS^WT), SK-MEL-28 (melanoma BRAF^V600E, NRAS^WT), SK-MEL-147 (melanoma BRAF^WT, NRAS^Q61R), MRC-5 (fibroblasts), and primary fibroblast (FDH) were kindly provided by Professor Glaucia Santelli (University of São Paulo, Brazil). MCF7 (breast adenocarcinoma, ATCC HTB-22), and HCT-116 (colorectal carcinoma, ATCC 247) cells were obtained from American Type Culture Collection (ATCC) and deposited in the Cell Bank of Rio de Janeiro, Brazil. WM293A (metastatic melanoma BRAF^V600D, NRAS^WT), 501mel (metastatic melanoma BRAF^V600E; NRAS^G12D), and MM200 (melanoma BRAF^V600E, NRAS^WT) were kindly provided by Professor Sharon Prince, University of Cape Town, South Africa. All human melanoma and breast cell lines were cultivated with Dulbecco’s Modified Eagle Medium: Nutrient Mixture F-12 (Thermo Fisher Scientific, San Jose, CA, USA). MM200 and HCT-116 were maintained with Roswell Park Memorial Institute (RPMI) medium (Thermo Fisher Scientific, San Jose, CA, USA). Unless stated otherwise, media was supplemented with 10% fetal bovine serum (FBS) and 1% penicillin-streptomycin (Thermo Fisher Scientific, San Jose, CA, USA). Cells were incubated with 5% CO2 at 37 °C. When required, cells were detached from flask using trypsin-EDTA 0.05% (Thermo Fisher Scientific, San Jose, CA, USA).
(§2) Cytotoxic activity was evaluated by the transformation of 3-(4,5-dimethylthiazol-2-yl)-2,5-diphenyltetrazolium bromide (MTT; Thermo Fisher Scientific, San Jose, CA, USA) into formazan by viable cells. Cells were plated in a 96-well plate (1 × 10^4 cells/well) and, 24 h later, exposed to serial dilutions of the test compounds (from 0.00032 to 5.0 µM) for 24, 48, and 72 h. For each analysis, negative controls received 0.5% DMSO and positive control was delivered by doxorubicin (DOX; 0.05 to 10.0 µM). At the end of the incubation periods, the medium was replaced with fresh medium containing 0.5 mg/mL of MTT and supernatant was removed 3 h later. The plates were dried at 50 °C for 30 min and formazan was solubilized in DMSO (150 µL/well) for the absorbance measure at 570 nm on a plate reader (Thermo Fisher Scientific, San Jose, CA, USA). IC50 values (half-maximal inhibitory concentration) along with 95% CI (confidence intervals) were calculated by non-linear regression using GraphPad Prism 8.0 software (GraphPad Software, Inc., San Diego, CA, USA).

[2] = test system: HCT-116; assay: MTT cytotoxicity assay; settings: for IC50: Homo sapiens, HCT-116, 72 h treatment, MTT
Description: as §1, §2

[3] = test system: SK-MEL-147; assay: MTT cytotoxicity assay; settings: for IC50: Homo sapiens
Description: as §1, §2

[4] = test system: FDH; assay: MTT cytotoxicity assay; settings: FDH primary fibroblasts, 72 h treatment
Description: as §1, §2

[5] = test system: WM293A; assay: MTT cytotoxicity assay; settings: for IC50: Homo sapiens, WM293A, 72 h treatment, MTT
Description: as §1, §2

[6] = test system: MCF7; assay: MTT cytotoxicity assay; settings: for IC50: Homo sapiens, MCF7, 72 h treatment, MTT
Description: as §1, §2

[7] = test system: 501mel; assay: MTT cytotoxicity assay; settings: for IC50: Homo sapiens, 501mel, 72 h treatment, MTT
Description: as §1, §2

[8] = test system: SK-MEL-28; assay: MTT cytotoxicity assay; settings: for IC50: Homo sapiens
Description: as §1, §2

[9] = test system: MM200; assay: MTT cytotoxicity assay; settings: for IC50: MM200, 72 h treatment, MTT
Description: as §1, §2

[10] = test system: SK-MEL-147; assay: Clonogenic assay; settings: for decrease of cell proliferation expressed by colony area: SK-MEL-147, 24 h treatment, 6 days in drug-free medium
Description: […] (2.5 × 10^5) cells in 1 mL of media were seeded in cell culture dishes and, 24 h later, treated with SQ1 (0.3 µM and 0.6 µM for SK-MEL-28 and 0.9 µM and 1.8 µM for SK-MEL-147) or SQ2 (0.05 µM and 0.1 µM for SK-MEL-28 and 0.6 µM and 1.2 µM for SK-MEL-147) for 24 h. Doxorubicin (DOX; 1.4 µM for SK-MEL-28 and 0.8 µM for SK-MEL-147) was used as positive control and 0.5% DMSO as negative control.
After the cells were submitted to the treatment scheme (Section 4.6), adherent cells were collected, plated at 1 × 10^3 cell/plate on 35-mm plates and maintained in culture for 6 days in treatment-free medium. The medium was replaced every 2 days. Cells were then fixed and stained with a solution of 20% MeOH (Synth, Diadema, São Paulo, Brazil) and 0.5 g crystal violet (Sigma-Aldrich, St. Louis, MO, USA). Images were acquired using G:BOX Chemi XRQ (Syngene, Cambridge, UK) and quantified using the ImageJ program (ColonyArea; US National Institutes of Health, Bethesda, MD, USA).

[11] = SK-MEL-19 versus FDH, 72-h IC50 ratio
[12] = SK-MEL-19 versus MRC-5, 72-h IC50 ratio
[13] = HCT-116 versus FDH, 72-h IC50 ratio
[14] = HCT-116 versus MRC-5, 72-h IC50 ratio
[15] = SK-MEL-147, 24 h, SK-MEL-147, 24h treatment, MTT
[16] = SK-MEL-147, 48 h, SK-MEL-147, 48h treatment, MTT
[17] = SK-MEL-147, 72 h, SK-MEL-147, 72 h treatment, MTT
[18] = SK-MEL-147, SK-MEL-147, 24h treatment, 1h pre-treated with 30 nM bafilomycin A1
[19] = SK-MEL-147, SK-MEL-147, 24h treatment, 1h pre-treated with 20 µM Z-VAD-FMK
[20] = SK-MEL-147, SK-MEL-147, 24h treatment, no pre-treatment (Table S4)
[21] = SK-MEL-147 versus FDH, 72-h IC50 ratio
[22] = SK-MEL-147 versus MRC-5, 72-h IC50 ratio
[23] = WM293A versus FDH, 72-h IC50 ratio
[24] = WM293A versus MRC-5, 72-h IC50 ratio
[25] = MCF7 versus FDH, 72-h IC50 ratio
[26] = MCF7 versus MRC-5, 72-h IC50 ratio
[27] = 501mel versus FDH, 72-h IC50 ratio
[28] = 501mel versus MRC-5, 72-h IC50 ratio
[29] = SK-MEL-28, 24 h, SK-MEL-28, 24h treatment, MTT
[30] = SK-MEL-28, 48 h, SK-MEL-28, 48h treatment, MTT
[31] = SK-MEL-28, 72 h, SK-MEL-28, 72 h treatment, MTT
[32] = SK-MEL-28, SK-MEL-28, 24h treatment, 1h pre-treated with 30 nM bafilomycin A1
[33] = SK-MEL-28, SK-MEL-28, 24h treatment, 1h pre-treated with 20 µM Z-VAD-FMK
[34] = SK-MEL-28, SK-MEL-28, 24h treatment, no pre-treatment (Table S4)
[35] = SK-MEL-28 versus FDH, 72-h IC50 ratio
[36] = SK-MEL-28 versus MRC-5, 72-h IC50 ratio
[37] = MM200 versus FDH, 72-h IC50 ratio
[38] = MM200 versus MRC-5, 72-h IC50 ratio

Structure (SMILES) | IC50 [1] | Selectivity Index (SI) [1, 11] | Selectivity Index (SI) [1, 12] | Selectivity Index (SI) [2, 13] | Selectivity Index (SI) [2, 14] | IC50 [2] | IC50 [3, 15] | IC50 [3, 16] | IC50 [3, 17] | IC50 [3, 18] | IC50 [3, 19] | IC50 [3, 20] | Selectivity Index (SI) [3, 21] | Selectivity Index (SI) [3, 22] | IC50 ([4]; Homo sapiens, Fibroblast, 72 h) | IC50 [5] | Selectivity Index (SI) [5, 23] | Selectivity Index (SI) [5, 24] | IC50 [6] | Selectivity Index (SI) [6, 25] | further results
O=c1c2ccccc2c(=O)c2c1sc1c(=O)c3ccccc3c(=O)c12 [SQ1, seriniquinone] | 60 nM | 19.2 | 10.7 | 1.1 | 0.6 | 1000 nM | 1790 nM | 1610 nM | 130 nM | 2260 nM | 1890 nM | 1640 nM | 8.8 | 4.9 | 1150 nM | 1050 nM | 1.1 | 0.6 | 3300 nM | 0.3 | IC50 [4]: 1200 nM; Selectivity Index (SI) [6, 26]: 0.2; Selectivity Index (SI) [7, 27]: 3.6; Selectivity Index (SI) [7, 28]: 2.0; IC50 [7]: 320 nM; IC50 [8, 29]: 560 nM; IC50 [8, 30]: 690 nM; IC50 [8, 31]: 150 nM; IC50 [8, 32]: 140 nM; IC50 [8, 33]: 700 nM; IC50 [8, 34]: 350 nM; Selectivity Index (SI) [8, 35]: 7.7; Selectivity Index (SI) [8, 36]: 4.3; IC50 ([9]; Homo sapiens, 72 h): 1360 nM; IC50 [9]: 1400 nM; Selectivity Index (SI) [9, 37]: 0.8; Selectivity Index (SI) [9, 38]: 0.5; reduction of the colony levels ([10]; SK-MEL-147, 24 h treatment at half IC50 and IC50, 6 days in drug-free medium): greater than 50%; decrease of cell proliferation expressed by colony area [10]: 50%
CC(C)(O)C(O)CCc1ccc2c(=O)c3sc4c(=O)c5ccccc5c(=O)c4c3c(=O)c2c1 (stereo not drawn) [SQ2] | 40 nM | 29.3 | 39.3 | 5.1 | 6.8 | 230 nM | 1260 nM | 890 nM | 100 nM | 1180 nM | 1280 nM | 910 nM | 11.7 | 15.7 | 1170 nM | 740 nM | 1.6 | 2.1 | 730 nM | 1.6 | Selectivity Index (SI) [6, 26]: 2.2; Selectivity Index (SI) [7, 27]: 10.6; Selectivity Index (SI) [7, 28]: 14.3; IC50 [7]: 110 nM; IC50 [8, 29]: 140 nM; IC50 [8, 30]: 260 nM; IC50 [8, 31]: 40 nM; IC50 [8, 32]: 60 nM; IC50 [8, 33]: 370 nM; IC50 [8, 34]: 240 nM; Selectivity Index (SI) [8, 35]: 29.3; Selectivity Index (SI) [8, 36]: 39.3; IC50 ([9]; Homo sapiens, 72 h): 750 nM; Selectivity Index (SI) [9, 37]: 1.6; Selectivity Index (SI) [9, 38]: 2.1; decrease of cell proliferation expressed by colony area [10]: 50%
